Assay results published in patent US20230147993A1, “THIOPHENE COMPOUNDS WITH CYCLIC AMIDES, AND USES THEREOF” (Capulus Therapeutics, LLC, priority 2019, published 2023).
Like-named read-outs stand apart in the source and are kept apart here.

What was measured:
SREBP = assay: Reporter Screening Assay (SRE-luciferase reporter, HepG2); type: cell-based; conditions: SREBPv1 Reporter cell line HepG2, 24 hours, 0.01 uM to 10 uM, read-out: I: Reporter Screening Assay (Ave EC50 (nM))
Procedure: Reporter Screening Assay: This assay was used to evaluate the effect on transcriptional activity SREBP of selected compounds using an SRE-luciferase reporter construct. On day 1, 10,000 cells were seeded in a 96 well (white) plate as per the plate map in Growth media without antibiotics. Cells were incubated at 37° C. for 8 hours. After 8 hours, cells were washed with DPBS for complete removal of FBS. DPBS was completely removed and Growth media was replaced with phenol free treatment medium (90 μl) with different FBS concentrations. The cells were then incubated at 37° C. for 24 hours with varying doses (0.01 uM to 10 uM) of compounds. Then a Luciferase assay was performed.
Reagents for performing Luciferase assay were stored at −20° C. To a tube of lyophilized assay substrate was added 1 mL Substrate Solvent and mixed well. The Substrate tube after reconstitution was covered with aluminum foil so as to keep it protected from light. The assay buffer was thawed to room temperature. To 20 mL Assay Buffer was added 200 µL of reconstituted 100× Substrate and mixed well. The reconstituted substrate as well as the assay solution (buffer + substrate) was protected from light throughout the procedure by keeping it covered with aluminum foil. Using a multi-channel pipette, 100 μL Assay Solution (buffer + substrate) was added directly to each sample well in Plate 1, which was incubated for 30 min (plate was covered with aluminum foil). After 30 min incubation, the plate was read for total luminescence. Each well was read for 2 seconds in a plate luminometer. (Microplate reader Envision Microplate reader from Perkin Elmer). Precaution was taken to incubate plate exactly for 30 min prior to reading on the plate reader.
Reporter Assay Materials: SREBPv1 Reporter cell line: HepG2-#32251. Growth Medium: MEM (Corning 10-010), 10% FBS, 1% GlutaMax (Invitrogen Catalog #35050061), […] (Invitrogen Catalog #A1113803) and 1% Penicillin-Streptomycin (Pen-Strep). Treatment Media: Phenol-free MEM (Invitrogen Catalog #51200-038) and 1% GlutaMax (Invitrogen Catalog #35050061). Luciferase Assay: LightSwitch Luciferase Assay Kit (Catalog #32032). LDH assay: Pierce LDH Cytotoxicity Assay Kit (Catalog #SD249616).

ACACA = assay: Gene expression in HepG2 cells (qPCR), ACACA; type: cell-based; conditions: for 48 hours, normalized to β-Actin, relative to mock or vehicle treated cells (ΔΔCT)
Procedure: Gene Expression: The effect of selected compounds on the gene expression of HepG2 cells was evaluated. HepG2 cells (P2) were seeded in 24 well plate (80,000 cells/well) for RNA extraction and in a 96 well plate (10,000 cells/well) for Cell Titer Glow (CTG). The media used was DMEM and contained 10% FBS. Each compound was evaluated at […] for 48 hours. Two biological replicates per experimental group were evaluated for RNA. For gene analysis, RNA was harvested with RNEasy kit and 20-100 ng used to synthesize cDNA with random primers. Quantitative PCR was performed on 1 pg to 100 ng cDNA for the following genes: ACACA, ACLY, FASN, LSS, PNPLA3. Gene expression levels were normalized with housekeeping gene, β-Actin, and relative expression levels determined using ΔΔCT method comparing treated to mock or vehicle treated cells as a baseline. “Total” gene expression refers to the average of the values of the 5 genes listed above.

[1] = Stability in human liver microsomes; type: in vitro ADME; conditions: 60 min at 37° C., NADPH
Procedure: (§1) Half-life Human Microsomes: Compounds were evaluated for stability in human liver microsomes. A 10 mM stock solution of the compound being evaluated was prepared in DMSO and diluted with water:acetonitrile (1:1) to a concentration of 1 mM. A working concentration of 100 μM was prepared by further dilution with water:acetonitrile (1:1). To make the preincubation mixture, 2.5 μL of the diluted compound was combined with 75 μL of human liver microsomes at 3.33 mg/mL, and 85 μL of 100 mM potassium phosphate buffer, and this mixture was pre-incubated for 10 min at 37° C. To make the 60 minute mixture without cofactor, 32.5 μL of the preincubation mixture was combined with 17.5 μL of 100 mM potassium phosphate buffer and incubated for 60 min at 37° C. To make the 0 min sample with cofactor (NADPH), 16.25 μL of the preincubation mixture was combined with 200 μL of acetonitrile containing internal standard and 8.75 μL of cofactor (NADPH). To make the incubation mixture, 62 μL of cofactor (2.85 mM) was combined with the remaining incubation mixture, and incubated for 60 min at 37° C. To prepare the sample mixture to be evaluated, 25 μL incubation mixture was combined with 200 μL of acetonitrile containing internal standard and vortexed for 5 min at 1200 rpm, then centrifuged for 10 min at 4000 rpm. The supernatant was diluted 2 fold with water and injected on LC-MS/MS. The sample mixture was evaluated by LC-MS/MS using 10 mM ammonium acetate with 0.1% FA as the aqueous mobile phase, and methanol as the organic mobile phase.

[2] = Stability in mouse liver microsomes; type: in vitro ADME
Procedure: as §1
Half-life Mouse Microsomes: Compounds were evaluated in mouse liver microsomes following a similar procedure as described above for human liver microsomes. A similar procedure could be used to evaluate compounds in rat liver microsomes.

| Structure (SMILES) | EC50 (SREBP; Homo sapiens) [nM] | percent remaining after 60 min in human liver microsomes [1] | percent remaining after 60 min in mouse liver microsomes [2] | EC50 (SREBP) [nM] | A: ACACA, effect of compounds on gene expression of HepG2 cells (ACACA) |
| --- | --- | --- | --- | --- | --- |
| O=C(c1ccc(-c2cc(-c3ccnc4c3OCC(CO)O4)cs2)c(Cl)c1)N1CCC(O)CC1 (racemic) [Compound I-1629181, (3-chloro-4-(4-(3-(hydroxymethyl)-2,3-dihydro-[1,4]dioxino[2,3-b]pyridin-8-yl)thiophen-2-yl)phenyl)(4-hydroxypiperidin-1-yl)methanone] | < 249 |  |  |  |  |
| O=C(c1ccc(-c2cc(-c3ccnc(C4CCCO4)c3)cs2)c(Cl)c1)N1CCC(O)CC1 (centres unmarked) [Compound I-1628777, (3-chloro-4-(4-(2-(tetrahydrofuran-2-yl)pyridin-4-yl)thiophen-2-yl)phenyl)(4-hydroxypiperidin-1-yl)methanone] | 250 to 500 | + (0-30 = +) | +++ (≥60.1 = +++) |  | ++ (0.31-0.7509 = ++) |
| O=C(c1ccc(-c2cc(-c3ccnc(C4(CO)CC4)c3)cs2)c(Cl)c1)N1CCC(O)CC1 [Compound I-1628961, (3-chloro-4-(4-(2-(1-(hydroxymethyl)cyclopropyl)pyridin-4-yl)thiophen-2-yl)phenyl)(4-hydroxypiperidin-1-yl)methanone] | < 249 | +++ (≥60.1 = +++) | +++ (≥60.1 = +++) |  | ++ (0.31-0.7509 = ++) |
| O=C(c1ccc(-c2cc(-c3ccnc(C4(CO)CCC4)c3)cs2)c(Cl)c1)N1CCC(O)CC1 [Compound I-1629089, (3-chloro-4-(4-(2-(1-(hydroxymethyl)cyclobutyl)pyridin-4-yl)thiophen-2-yl)phenyl)(4-hydroxypiperidin-1-yl)methanone] | > 500 | + (0-30 = +) | +++ (≥60.1 = +++) |  |  |
| O=C(c1ccc(-c2cc(-c3ccnc(OC4COC4)c3)cs2)c(Cl)c1)N1CCC(O)CC1 [Compound I-1629100, (3-chloro-4-(4-(2-(oxetan-3-yloxy)pyridin-4-yl)thiophen-2-yl)phenyl)(4-hydroxypiperidin-1-yl)methanone] | > 500 | +++ (≥60.1 = +++) | +++ (≥60.1 = +++) |  |  |
| CC(C)(O)COc1cc(-c2csc(-c3ccc(C(=O)N4CCC(O)CC4)cc3Cl)c2)ccn1 [Compound I-1629101, (3-chloro-4-(4-(2-(2-hydroxy-2-methylpropoxy)pyridin-4-yl)thiophen-2-yl)phenyl)(4-hydroxypiperidin-1-yl)methanone] | > 500 | +++ (≥60.1 = +++) | +++ (≥60.1 = +++) |  |  |
| O=C(c1ccc(-c2cc(-c3ccnc(OC4CC(CO)C4)c3)cs2)c(Cl)c1)N1CCC(O)CC1 (centres unmarked) [Compound I-1629110, (3-chloro-4-(4-(2-(3-(hydroxymethyl)cyclobutoxy)pyridin-4-yl)thiophen-2-yl)phenyl)(4-hydroxypiperidin-1-yl)methanone] | < 249 | +++ (≥60.1 = +++) | +++ (≥60.1 = +++) |  |  |
| O=C(c1ccc(-c2cc(-c3ccnc(C4(CO)CC4)c3)cs2)c(Cl)c1)N1CC[C@H](O)[C@@H](F)C1 [Compound I-1629121, (3-chloro-4-(4-(2-(l-(hydroxymethyl)cyclopropyl)pyridin-4-yl)thiophen-2-yl)phenyl)((3S,4S)-3-fluoro-4-hydroxypiperidin-1-yl)methanone] | < 249 |  | +++ (≥60.1 = +++) |  |  |
| CC(C)[C@H](N)C(=O)OC1CCN(C(=O)c2ccc(-c3cc(-c4ccnc(C5(CO)CC5)c4)cs3)c(Cl)c2)CC1 [Compound I-1629122, 1-(3-chloro-4-(4-(2-(1-(hydroxymethyl)cyclopropyl)pyridin-4-yl)thiophen-2-yl)benzoyl)piperidin-4-yl L-valinate] | < 249 |  |  |  |  |
| O=C(c1ccc(-c2cc(-c3ccnc(OC4CC(O)C4)c3)cs2)c(Cl)c1)N1CCC(O)CC1 (centres unmarked) [Compound I-1629124, (3-chloro-4-(4-(2-(3-hydroxycyclobutoxy)pyridin-4-yl)thiophen-2-yl)phenyl)(4-hydroxypiperidin-1-yl)methanone] | < 249 |  | +++ (≥60.1 = +++) |  |  |

Continued, in another order:

| EC50 (SREBP; Homo sapiens) [nM] | percent remaining after 60 min in human liver microsomes [1] | percent remaining after 60 min in mouse liver microsomes [2] | EC50 (SREBP) [nM] | Structure (SMILES) | A: ACACA, effect of compounds on gene expression of HepG2 cells (ACACA) |
| --- | --- | --- | --- | --- | --- |
| > 500 | + (0-30 = +) | +++ (≥60.1 = +++) |  | O=C(c1ccc(-c2cc(-c3ccnc(C4CCOCC4)c3)cs2)c(Cl)c1)N1CCC(O)CC1 [Compound I-1628752, (3-chloro-4-(4-(2-(tetrahydro-2H-pyran-4-yl)pyridin-4-yl)thiophen-2-yl)phenyl)(4-hydroxypiperidin-1-yl)methanone] | + (>0.751 = +) |
| < 249 | + (0-30 = +) | +++ (≥60.1 = +++) |  | O=C(c1ccc(-c2cc(-c3ccnc(C4CCOC4)c3)cs2)c(Cl)c1)N1CCC(O)CC1 (centres unmarked) [Compound I-1628763, (3-chloro-4-(4-(2-(tetrahydrofuran-3-yl)pyridin-4-yl)thiophen-2-yl)phenyl)(4-hydroxypiperidin-1-yl)methanone] | ++ (0.31-0.7509 = ++) |
| < 249 | +++ (≥60.1 = +++) | +++ (≥60.1 = +++) |  | O=C(c1ccc(-c2cc(-c3ccnc(O[C@@H]4CO[C@H]5[C@@H]4OC[C@H]5O)c3)cs2)c(Cl)c1)N1CCC(O)CC1 [Compound I-1629106, (3-chloro-4-(4-(2-(((3R,3aR,6R,6aR)-6-hydroxyhexahydrofuro [3,2-b]furan-3-yl)oxy)pyridin-4-yl)thiophen-2-yl)phenyl)(4-hydroxypiperidin-1-yl)methanone] |  |
| < 249 | +++ (≥60.1 = +++) | +++ (≥60.1 = +++) |  | O=C(c1ccc(-c2cc(-c3ccnc(OCC4CC(O)C4)c3)cs2)c(Cl)c1)N1CCC(O)CC1 (centres unmarked) [Compound I-1629118, (3-chloro-4-(4-(2-((3-hydroxycyclobutyl)methoxy)pyridin-4-yl)thiophen-2-yl)phenyl)(4-hydroxypiperidin-1-yl)methanone] |  |
|  |  |  | < 249 | CC(C)[C@H](N)C(=O)OCC1(c2cc(-c3csc(-c4ccc(C(=O)N5CCC(O)CC5)cc4Cl)c3)ccn2)CC1 [Compound I-1629123, (l-(4-(5-(2-chloro-4-(4-hydroxypiperidine-1-carbonyl)phenyl)thiophen-3-yl)pyridin-2-yl)cyclopropyl)methyl L-valinate] |  |
